Source: patent publication US8968453B2, “Anthrapyridone sulfonic acid compounds and their preparation methods and applications” (Zhuhai Ninestar Management Co., Ltd., priority 2011, dated 2015)

Columns and labels:
Assay type in all cases: physicochemical
[1] = Printed images light resistance test with xenon lamp; conditions: grade of color difference ΔE; ink with 6 portions dye on glossy photo paper; xenon lamp 0.36 W/m^2, 50 h, 60% RH, 24° C.
Excerpt: (§1) Prepare the ink composition of Table 8 with the product obtained in Embodiment 1-11 as the coloring agent, and filter the ink composition with 0.45 μm membrane filter to obtain the magenta ink composition of the present invention. Add ion exchange water and triethanolamine to adjust the pH value of the ink composition to 8-10 and the weight to 100 portions. By the same methods, prepare ink compositions with control sulfonic-group-free anthrone dyes Dye1 and Dye2, hydrolytic derivatives of commercial dye C.I. reactive red 180 (reactive red 180 for short) and C.I. direct red 227 for comparison.
(§2) Use an ink-jet printer (Epson 270 manufactured by Epson Company), glossy photo paper (Epson) and the above described ink compositions for ink-jet printing.
(1) Printed Images Light Resistance Test with Xenon Lamp
Irradiate the printed glossy photo paper manufactured by Canon and Epson with Xenon-lamp Weathering Test Chamber ZG-P (manufactured by China Surui Company) at 60% RH and 24° C. with illuminance of 0.36 W/m^2 for 50 h to test the color difference (ΔE) before and after the test. The color difference (ΔE) is calculated from the differences of values of L*, a*, b* before and after the test in the above described color measurement system (Unterlab) by the followings formula: ΔE=((difference of L*)^2+(difference of a*)^2+(difference of b*)^2)^1/2.
Three grades will be divided for the evaluation based on the following benchmark: • ΔE<10 ∘ • ΔE<20 Δ • ΔE>20 x

[2] = Gas (ozone) resistance of the printed images; conditions: grade of color difference ΔE; ink with 6 portions dye on glossy photo paper; 40 ppm ozone, 60% RH, 24° C.
Excerpt: Prepare the ink composition of Table 8 with the product obtained in Embodiment 1-11 as the coloring agent, and filter the ink composition with 0.45 μm membrane filter to obtain the magenta ink composition of the present invention. Add ion exchange water and triethanolamine to adjust the pH value of the ink composition to 8-10 and the weight to 100 portions. By the same methods, prepare ink compositions with control sulfonic-group-free anthrone dyes Dye1 and Dye2, hydrolytic derivatives of commercial dye C.I. reactive red 180 (reactive red 180 for short) and C.I. direct red 227 for comparison. Use an ink-jet printer (Epson 270 manufactured by Epson Company), glossy photo paper (Epson) and the above described ink compositions for ink-jet printing. (2) Gas Resistance of the Printed Images Place the printed images in the Ozone Weathering Test Chamber (manufactured by China Surui Company) at 60% RH, 24° C. and 40 ppm ozone. Calculated the color difference (ΔE) before and after the test by the same method as described in (1) above and evaluate it in 3 grades based on the following benchmark: • ΔE<10 ∘ • ΔE<20 Δ • ΔE>20 x

[3] = Wet resistance of the printed images; design: key: No bleeding ∘; Slight bleeding Δ; Notable bleeding x; conditions: bleeding judged by bare eyes; 50° C., 90% RH, 168 h
Excerpt: as §1, §2
(3) Wet Resistance of the Printed Images
Place the printed images in the Constant Temperature and Humidity Chamber (manufactured by China Surui Company) at 50° C. and 90% RH for 168 h; judge the bleeding of the ink by bare eyes before and after the test and evaluate it in 3 grades based on the following benchmark: • No bleeding ∘ • Slight bleeding Δ • Notable bleeding x

[4] = Evaluation of solubility and solution stability; design: key: No precipitation ∘; Slight precipitation Δ; Notable x; conditions: 20 portions dye, 70 portions water, 10 portions ethylene glycol; 50° C. 7 d, then 0° C. 7 d; precipitation on filtering
Description: (D) Evaluation of Solubility and Solution Stability
Heat and dissolve the system of 20 portions of dyes, 70 portions of water and 10 portions of ethylene glycol; after the solution cools down, store it airtight at a constant temperature of 50° C. for 7 d; cool it down and store it at 0° C. for 7 d; filter the solution and evaluate it in 3 grades based on the following benchmark: • No precipitation ∘ • Slight precipitation Δ • Notable x

Row | Structure (SMILES) | UV resistance of printed images [1] | Ozone resistance of printed images [2] | Water resistance of printed images [3] | Solubility and stability of dyes in aqueous solvent system [4]
1 | O=C(O)c1cc(Oc2nc(Nc3cc(Nc4cc(S(=O)(=O)O)c5[nH]c(=O)c(C(=O)c6cccc(S(=O)(=O)O)c6)c6c5c4C(=O)c4ccccc4-6)c(S(=O)(=O)O)cc3S(=O)(=O)O)nc(N(CCO)CCO)n2)cc(C(=O)O)c1 [Dye D2] | ∘ (ΔE<10 ∘) | ∘ (ΔE<10 ∘) | ∘ | ∘
2 | O=C(O)c1cc(Oc2nc(Nc3cc(Nc4cc(S(=O)(=O)O)c5[nH]c(=O)c(C(=O)c6cccc(S(=O)(=O)O)c6)c6c5c4C(=O)c4ccccc4-6)c(S(=O)(=O)O)cc3S(=O)(=O)O)nc(Oc3cc(C(=O)O)cc(C(=O)O)c3)n2)cc(C(=O)O)c1 [Dye D1] | ∘ (ΔE<10 ∘) | ∘ (ΔE<10 ∘) | ∘ | ∘
3 | CCN(CC)CCS(=O)(=O)c1ccc(S(=O)(=O)O)c(Nc2ccc3[nH]c(=O)c(C(=O)c4cccc(S(=O)(=O)O)c4)c4c3c2C(=O)c2ccccc2-4)c1 [Dye1, reference compound] | Δ (ΔE<20 Δ) | Δ (ΔE<20 Δ) | ∘ | Δ
4 | O=C(c1cccc(S(=O)(=O)O)c1)c1c2c3c(c(Nc4cc(S(=O)(=O)CCSCCCS(=O)(=O)O)c(S(=O)(=O)O)cc4S(=O)(=O)O)cc(S(=O)(=O)O)c3[nH]c1=O)C(=O)c1ccccc1-2 [Dye B3] | ∘ (ΔE<10 ∘) | ∘ (ΔE<10 ∘) | ∘ | ∘
5 | CCN(CC)CCS(=O)(=O)c1ccc(S(=O)(=O)O)c(Nc2cc(S(=O)(=O)O)c3[nH]c(=O)c(C(=O)c4cccc(S(=O)(=O)O)c4)c4c3c2C(=O)c2ccccc2-4)c1 [Dye B2] | ∘ (ΔE<10 ∘) | ∘ (ΔE<10 ∘) | ∘ | ∘
6 | O=C(c1cccc(S(=O)(=O)O)c1)c1c2c3c(c(Nc4cc(S(=O)(=O)CCSCCCS(=O)(=O)O)ccc4S(=O)(=O)O)cc(S(=O)(=O)O)c3[nH]c1=O)C(=O)c1ccccc1-2 [Dye B1] | ∘ (ΔE<10 ∘) | ∘ (ΔE<10 ∘) | ∘ | ∘
7 | Cc1ccc(S(=O)(=O)Nc2cc(Nc3cc(S(=O)(=O)O)c4[nH]c(=O)c(C(=O)c5cccc(S(=O)(=O)O)c5)c5c4c3C(=O)c3ccccc3-5)c(S(=O)(=O)O)cc2S(=O)(=O)O)cc1 [Dye D4] | ∘ (ΔE<10 ∘) | Δ (ΔE<20 Δ) | ∘ | Δ
8 | CC(=O)Nc1cc(Nc2ccc3[nH]c(=O)c(C(=O)c4cccc(S(=O)(=O)O)c4)c4c3c2C(=O)c2ccccc2-4)c(S(=O)(=O)O)cc1S(=O)(=O)O [Dye2, reference compound] | Δ (ΔE<20 Δ) | Δ (ΔE<20 Δ) | ∘ | Δ
9 | CCN(CC)CCS(=O)(=O)c1cc(Nc2cc(S(=O)(=O)O)c3[nH]c(=O)c(C(=O)c4cccc(S(=O)(=O)O)c4)c4c3c2C(=O)c2ccccc2-4)c(S(=O)(=O)O)cc1S(=O)(=O)O [Dye B4] | ∘ (ΔE<10 ∘) | ∘ (ΔE<10 ∘) | ∘ | ∘
10 | CN(c1nc(Oc2cc(C(=O)O)cc(C(=O)O)c2)nc(N(CCO)CCO)n1)c1cc(S(=O)(=O)O)c(Nc2cc(S(=O)(=O)O)c3[nH]c(=O)c(C(=O)c4cccc(S(=O)(=O)O)c4)c4c3c2C(=O)c2ccccc2-4)cc1S(=O)(=O)O [Dye D3] | ∘ (ΔE<10 ∘) | Δ (ΔE<20 Δ) | ∘ | ∘
11 | O=C(c1cccc(S(=O)(=O)O)c1)c1c2c3c(c(Nc4ccc(S(=O)(=O)O)cc4S(=O)(=O)O)cc(S(=O)(=O)O)c3[nH]c1=O)C(=O)c1ccccc1-2 [Dye C1] | ∘ (ΔE<10 ∘) | ∘ (ΔE<10 ∘) | ∘ | ∘
12 | CC(=O)Nc1cc(Nc2cc(S(=O)(=O)O)c3[nH]c(=O)c(C(=O)c4cccc(S(=O)(=O)O)c4)c4c3c2C(=O)c2ccccc2-4)c(S(=O)(=O)O)cc1S(=O)(=O)O [Dye C5] | ∘ (ΔE<10 ∘) | ∘ (ΔE<10 ∘) | ∘ | ∘
13 | O=S(=O)([O-])c1cc(Nc2nc(Nc3ccc(/C=C/c4ccc(Nc5nc(Nc6cc(S(=O)(=O)[O-])cc7cc(S(=O)(=O)[O-])c(N=Nc8ccccc8)c(O)c67)nc(N6CCOCC6)n5)cc4S(=O)(=O)[O-])c(S(=O)(=O)[O-])c3)nc(N3CCOCC3)n2)c2c(O)c(N=Nc3ccccc3)c(S(=O)(=O)[O-])cc2c1.[Na+].[Na+].[Na+].[Na+].[Na+].[Na+] [C.I. direct red 227, reference compound] | x (ΔE>20 x) | x (ΔE>20 x) | Δ | Δ
